Laboratory results as given in US20200405603A1, “COMPOSITIONS AND METHODS FOR TREATING SKIN CONDITIONS USING INFRARED LIGHT AND RESORCINOLS” (Johnson & Johnson Consumer Inc., priority 2019, published 2020).

System: lamin b1 (LMNB1) gene expression
Assay: lamin B1 (LMNB1) gene expression assay (qPCR) in skin equivalents, with TNF-α to simulate photoaged skin
Format: cell-based, human
Description: The effects of IR light, hexyl resorcinol (HR), and combinations thereof on lamin B1 gene expression in the presence of TNF-α was tested as follows. TNF-α is known to play a primary role in the inflammation process upon ultraviolet (UV) irradiation and is stimulated by UVB.
Three human full-thickness skin equivalents (MatTek, Ashland, Mass.) were used for each treatment. The skin equivalents were treated with one of the following: (i) 100 ng/ml TNF-α in a medium (1× phenol-red free Hank's buffered saline solution (HBSS), (ii) a placebo formulation, (iii) a hexyl resorcinol formulation containing 0.5 weight percent hexyl resorcinol (HR) in the placebo formulation, (iv) infrared (IR) light (wavelength 830 nm) at 0.5 mW/cm^2 for 10 min (i.e. fluence at 0.3 J/cm^2), or (iv) combinations of these. TNF-α was used to simulate photoaged skin.
The placebo formulation contained the ingredients in Table 1. The hexyl resorcinol formulation contained the same ingredients plus 0.5 wt % hexyl resorcinol.
For the combination treatments, the formulations were first topically applied to the skin equivalents and left to stand for two hours. Next, the skin equivalents were irradiated with the IR light. Then the skin equivalents were incubated with or without 100 ng/ml TNF-α in the phenol-red-free medium for 24 hours.
Afterwards, the skin equivalents were collected in RNAlater solution (ThermoFisher Scientific, Bridgewater, N.J., USA) for RNA purification. The total RNAs were purified using a Qiagen RNeasy kit (Valencia, Calif., USA) following the manufacturer's instructions. RNA concentration was assessed using a Nanodrop 2000 spectrophotometer (ThermoFisher Scientific, Bridgewater, N.J., USA). Complementary DNA (cDNA) was performed using a High Capacity cDNA kit (ThermoFisher Scientific, Bridgewater, N.J., USA). TaqMan® gene expression assays for lamin b1 (LMNB1) and TATA-Box Binding Protein (TBP) and TaqMan® gene expression master mix from ThermoFisher Scientific (Bridgewater, N.J., USA) were used. Realtime polymerase chain reactions (qPCRs) of each treatment were performed using 5 ul of the 15 ul mixture of cDNAs pooled from three equivalent tissue replicates (i.e. mixing 5 ul of cDNA from each equivalent replicate). qPCRs were performed using a QuantStudio™ 7 Flex System (ThermoFisher Scientific, Bridgewater, N.J., USA). The RQ (relative quantitation) was calculated using the formula 2^-ΔΔCt.
The effects of red light (wavelength 640 nm, 0.3 J/cm^2) and HR on lamin B1 gene expression in the presence of TNF-α was tested using the same method as Example 1.

[1] = Example 2, treatment alone (no light, no other treatment)
[2] = treatment alone (no light, no other treatment), human full-thickness skin equivalents

CCCCCCc1ccc(O)cc1O [hexyl resorcinol, 4-hexylresorcinol] was tested, and the “change in lamin B1 gene expression” value (combination with red light) was “no substantial change”.

TNF-α was tested, and the “Induced LMNB1 (RQ)” value [1] was 1.55 RQ, the “Induced LMNB1 vs Untreated Control (RQ fold changes)” value [1] was 0.55 RQ fold changes and the “Difference of Induced LMNB1 vs Untreated Control (RQ fold changes)” value [2] was 0.55 RQ fold changes. For the same molecule, the “LMNB1 Induction (RQ)” value [2] was 1.55 RQ.
